Consider nine molecules from PubChem BioAssay (NCI).

Among the test systems are RXF 393 renal; MOLT-4 leukemia; SF-539 CNS; SW-620 colon; MALME-3M melanoma; UACC-257 melanoma; BT-549 breast; 786-0 renal; TK-10 renal; HCT-116 colon.
Common to all, as to assay: DTP human tumour cell line panel, 48 h

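Five compound concentrations were applied to cells in 96-well plates for 48 hours; endpoints were derived by simple linear interpolation of the resulting dose-response curve. The concentration for 50% growth inhibition is given as GI50. TGI denotes the concentration required for complete inhibition of growth.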

On to `O=C1OC(O)[C@@H]2[C@H]1[C@H]1CC[C@@H]2O1` (stereo not given in full), for which the GI50 with RXF 393 renal is 57 µM; in the assay with MOLT-4 leukemia, above 100 µM; with SF-539 CNS, above 100 µM; in the assay with SW-620 colon it was 52 µM; in the assay on MALME-3M melanoma, 28.1 µM; with UACC-257 melanoma, above 87 µM. In addition, the GI50 with BT-549 breast is above 100 µM; in the assay on 786-0 renal it was above 100 µM; with TK-10 renal it was 27.3 µM; in the assay on HCT-116 colon it was 42.9 µM. Also, the total growth inhibition concentration (TGI) in the assay with RXF 393 renal is above 100 µM; in the assay on MOLT-4 leukemia it was above 100 µM; in the assay on SF-539 CNS, above 100 µM; in the assay with SW-620 colon, above 100 µM; in the assay with MALME-3M melanoma it was 77.3 µM; with UACC-257 melanoma it was above 100 µM. Besides, the TGI with BT-549 breast was above 100 µM; with 786-0 renal, above 100 µM; in the assay with TK-10 renal, 66.2 µM; in the assay on HCT-116 colon, above 100 µM.
In the case of `Cc1cc(/C=C/c2ccc3cc(N(C)C)ccc3[n+]2C)c(C)n1-c1ccccc1`, the GI50 is 0.199 µM with RXF 393 renal; 0.193 µM in the assay on MOLT-4 leukemia; 0.336 µM in the assay with SF-539 CNS; 0.174 µM in the assay with SW-620 colon; 0.42 µM with MALME-3M melanoma; 0.184 µM in the assay on UACC-257 melanoma. Further, the GI50 in the assay with BT-549 breast was 0.159 µM; with 786-0 renal, 0.262 µM; in the assay on TK-10 renal it was 0.301 µM; in the assay with HCT-116 colon, 0.0908 µM. The TGI came out at 0.987 µM in the assay with RXF 393 renal; 2.52 µM in the assay on MOLT-4 leukemia; 2.47 µM in the assay with SF-539 CNS; 7.79 µM in the assay with SW-620 colon; 1.46 µM with MALME-3M melanoma; 0.951 µM in the assay with UACC-257 melanoma. The TGI in the assay with BT-549 breast worked out at 1.09 µM; with 786-0 renal it was 1.53 µM; in the assay with TK-10 renal, 2.34 µM; in the assay on HCT-116 colon, 2.69 µM.
With `N=Nc1c(OC(=O)Nc2cccc(Cl)c2)[nH]c2ccccc12`, the concentration for total growth inhibition (TGI) with RXF 393 renal worked out at 26.1 µM; with MOLT-4 leukemia it was 25.8 µM; in the assay with SF-539 CNS, 32.6 µM; in the assay on SW-620 colon it was 24.6 µM; in the assay on MALME-3M melanoma, 26.5 µM; in the assay on UACC-257 melanoma, 26.7 µM. The TGI with BT-549 breast worked out at 20.1 µM; in the assay with 786-0 renal, 18.2 µM; in the assay on TK-10 renal it was 24.6 µM; in the assay on HCT-116 colon, 14.1 µM.
Take `COc1c(Cl)c(=O)oc2ccc(Cl)cc12`: the total growth inhibition concentration (TGI) in the assay on RXF 393 renal, in the assay with MOLT-4 leukemia, with SF-539 CNS, in the assay on SW-620 colon, in the assay on MALME-3M melanoma and in the assay on UACC-257 melanoma was above 100 µM throughout. For the same molecule, the TGI in the assay on BT-549 breast, in the assay with 786-0 renal, with TK-10 renal and with HCT-116 colon was above 100 µM throughout.
Regarding `Nc1ncnc2n[nH]c(Nc3ccc(F)cc3)c12`, the GI50 in the assay with RXF 393 renal is 13.6 µM; in the assay on MOLT-4 leukemia it was 31.7 µM; in the assay with SF-539 CNS it was 23.6 µM; in the assay on SW-620 colon it was 18.2 µM; with MALME-3M melanoma it was 30.6 µM; in the assay with UACC-257 melanoma it was 67.7 µM. The GI50 is 56.7 µM in the assay with BT-549 breast, 19.3 µM with 786-0 renal, 25.4 µM in the assay with TK-10 renal and 12.3 µM with HCT-116 colon. The TGI in the assay with RXF 393 renal, in the assay with MOLT-4 leukemia, in the assay with SF-539 CNS, with SW-620 colon, in the assay with MALME-3M melanoma and in the assay on UACC-257 melanoma was above 100 µM each time. Besides, the TGI was above 100 µM in the assay on BT-549 breast, above 100 µM with 786-0 renal, above 100 µM in the assay with TK-10 renal and 31.9 µM in the assay with HCT-116 colon.
Take `COc1cc2c3c(n(C)c(=O)c2cc1OC)-c1cc2c(cc1/C3=C\CCCN)OCO2`: the GI50 in the assay on RXF 393 renal was 5.84 µM; in the assay with MOLT-4 leukemia, 0.325 µM; in the assay on SF-539 CNS, 1.65 µM; with SW-620 colon, 2.33 µM; with MALME-3M melanoma, 10.1 µM; in the assay on UACC-257 melanoma, 30.5 µM. The GI50 is 15.5 µM in the assay with BT-549 breast, 1.23 µM with 786-0 renal, 21.9 µM in the assay on TK-10 renal and 4.64 µM in the assay on HCT-116 colon. Moreover, the TGI was 32 µM in the assay with RXF 393 renal; 3.64 µM with MOLT-4 leukemia; 6.25 µM in the assay on SF-539 CNS; 32.9 µM in the assay on SW-620 colon; 38.6 µM in the assay with MALME-3M melanoma; above 100 µM in the assay on UACC-257 melanoma. In addition, the TGI was 38.9 µM in the assay on BT-549 breast, 5.02 µM in the assay on 786-0 renal, above 100 µM with TK-10 renal and 25.2 µM with HCT-116 colon.
Regarding `NC1(C(=O)OCc2ccccc2)CCCC1`, the TGI in the assay with RXF 393 renal is 33.7 µM; in the assay with MOLT-4 leukemia, 83 µM; with SF-539 CNS it was 31.7 µM; in the assay with SW-620 colon, above 100 µM; in the assay with MALME-3M melanoma, 31.8 µM; in the assay with UACC-257 melanoma it was 41.9 µM. The concentration for total growth inhibition (TGI) in the assay on BT-549 breast was 33.8 µM; in the assay with 786-0 renal, 42.8 µM; in the assay on TK-10 renal, above 100 µM; in the assay on HCT-116 colon it was 41.8 µM.
Take `O=C(CCc1nnc2sc(-c3ccc(Cl)cc3Cl)nn12)c1nc2ncccc2[nH]1`: the GI50 with RXF 393 renal was 1.8 µM; in the assay on MOLT-4 leukemia, 1.15 µM; in the assay on SF-539 CNS, 1.96 µM; in the assay with SW-620 colon it was 1.56 µM; in the assay on MALME-3M melanoma, 1.85 µM; in the assay on UACC-257 melanoma, 3 µM. For the same molecule, the GI50 was 1.98 µM in the assay with BT-549 breast, 1.81 µM with 786-0 renal, 2.53 µM with TK-10 renal and 1.3 µM in the assay with HCT-116 colon. Moreover, the TGI in the assay with RXF 393 renal is 3.34 µM; with MOLT-4 leukemia, 60.8 µM; in the assay with SF-539 CNS, 3.98 µM; in the assay on SW-620 colon, 3.68 µM; in the assay with MALME-3M melanoma, 4.1 µM; in the assay on UACC-257 melanoma, 9.01 µM. The TGI with BT-549 breast worked out at 4.36 µM; in the assay with 786-0 renal it was 3.53 µM; in the assay with TK-10 renal, 5.16 µM; in the assay with HCT-116 colon, 2.65 µM.
For the molecule `O=c1c2sccc2n(CC2COc3ccccc3O2)c(=O)n1O` (stereo not given), the GI50 in the assay with RXF 393 renal was 3 µM; in the assay on MOLT-4 leukemia it was 21.3 µM; with SF-539 CNS, 15.3 µM; in the assay on SW-620 colon, 3.76 µM; in the assay with MALME-3M melanoma, 20 µM; in the assay with UACC-257 melanoma it was 22.4 µM. The GI50 was 12.1 µM in the assay with BT-549 breast, 41.7 µM in the assay with 786-0 renal, 30.9 µM in the assay with TK-10 renal and 6.54 µM with HCT-116 colon. Also, the total growth inhibition concentration (TGI) is 9.7 µM in the assay on RXF 393 renal; above 100 µM in the assay with MOLT-4 leukemia; above 100 µM with SF-539 CNS; above 100 µM in the assay on SW-620 colon; 81.5 µM in the assay on MALME-3M melanoma; above 100 µM in the assay on UACC-257 melanoma. The TGI is above 100 µM in the assay on BT-549 breast, above 100 µM in the assay on 786-0 renal, above 100 µM in the assay on TK-10 renal and 29.2 µM in the assay with HCT-116 colon.
